Values quoted from earlier work in patent US20120275998A1, “BIODEGRADABLE STENT COMPRISING AN ACID SCAVENGING AGENT” (priority 2009, published 2012).

- Soluble (solvents) (solvents in which the substance is soluble): Ethanol, dimethyl sulfoxide
- Water solubility (water): slightly soluble in water
SMILES: OCCN(CCO)c1nc(N2CCCCC2)c2nc(N(CCO)CCO)nc(N3CCCCC3)c2n1 [Dipyridamole, 2,6-bis(dithioethanolamino)-4,8-dipiperidinopyrimido(5,4-d)pyrimidine]
